Experimental data: patent US8192962B2, “Processes for detecting toxic substances” (Daikin Industries, Ltd., priority 2001, dated 2012)

Test system: Metabolism protein genes
Assay: DNA chip mRNA expression in yeast, metabolism protein genes (Table 7)
Assay type: cell-based, Saccharomyces cerevisiae S288C
How it was run: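 Chemical exposure: 2 h, log-phase S. cerevisiae S288C, YPD, 25° C., dose set to inhibit growth without death. Profiling: mRNA labeled by reverse transcription with Cy3- or Cy5-dUTP, hybridized to whole-genome array. Output: fluorescence ratio against untreated culture.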

N#Cc1c(Cl)c(Cl)c(Cl)c(C#N)c1Cl [(9), 2,4,5,6-tetrachloro-1,3-benzenedicarbonitrile]
The level of expressed mRNA in the presence of chemical substance/The level of expressed mRNA in the absence of chemical substance (yeast gene YAL012W): 4.7
The level of expressed mRNA in the presence of chemical substance/The level of expressed mRNA in the absence of chemical substance (yeast gene YAL038W): 0.1
The level of expressed mRNA in the presence of chemical substance/The level of expressed mRNA in the absence of chemical substance (yeast gene YAL044C): 0.4
The level of expressed mRNA in the presence of chemical substance/The level of expressed mRNA in the absence of chemical substance (yeast gene YAL054C): 8.9
The level of expressed mRNA in the presence of chemical substance/The level of expressed mRNA in the absence of chemical substance (yeast gene YAR071W): 0.3
The level of expressed mRNA in the presence of chemical substance/The level of expressed mRNA in the absence of chemical substance (yeast gene YBL001C): 1.5
The level of expressed mRNA in the presence of chemical substance/The level of expressed mRNA in the absence of chemical substance (yeast gene YBL033C): 6.6
The level of expressed mRNA in the presence of chemical substance/The level of expressed mRNA in the absence of chemical substance (yeast gene YBL086C): 3.3
level of expressed mRNA in the presence/in the absence of chemical substance (yeast gene YBR003W): 1.0
level of expressed mRNA in the presence/in the absence of chemical substance (yeast gene YBR011C): 2.2
The level of expressed mRNA in the presence of chemical substance/The level of expressed mRNA in the absence of chemical substance (yeast gene YBR014C): 1.3
The level of expressed mRNA in the presence of chemical substance/The level of expressed mRNA in the absence of chemical substance (yeast gene YBR023C): 0.3
The level of expressed mRNA in the presence of chemical substance/The level of expressed mRNA in the absence of chemical substance (yeast gene YBR029C): 2.0
The level of expressed mRNA in the presence of chemical substance/The level of expressed mRNA in the absence of chemical substance (yeast gene YBR035C): 2.2
The level of expressed mRNA in the presence of chemical substance/The level of expressed mRNA in the absence of chemical substance (yeast gene YBR068C): 0.8
The level of expressed mRNA in the presence of chemical substance/The level of expressed mRNA in the absence of chemical substance (yeast gene YBR183W): 0.4
The level of expressed mRNA in the presence of chemical substance/The level of expressed mRNA in the absence of chemical substance (yeast gene YBR222C): 0.7
The level of expressed mRNA in the presence of chemical substance/The level of expressed mRNA in the absence of chemical substance (yeast gene YBR256C): 18.1
The level of expressed mRNA in the presence of chemical substance/The level of expressed mRNA in the absence of chemical substance (yeast gene YBR296C): 0.4
The level of expressed mRNA in the presence of chemical substance/The level of expressed mRNA in the absence of chemical substance (yeast gene YCL009C): 0.9
The level of expressed mRNA in the presence of chemical substance/The level of expressed mRNA in the absence of chemical substance (yeast gene YCL064C): 1.7
level of expressed mRNA in the presence/in the absence of chemical substance (yeast gene YCR010C): 0.9
level of expressed mRNA in the presence/in the absence of chemical substance (yeast gene YCR034W): 0.1
The level of expressed mRNA in the presence of chemical substance/The level of expressed mRNA in the absence of chemical substance (yeast gene YCR036W): 2.6
The level of expressed mRNA in the presence of chemical substance/The level of expressed mRNA in the absence of chemical substance (yeast gene YCR048W): 0.8
The level of expressed mRNA in the presence of chemical substance/The level of expressed mRNA in the absence of chemical substance (yeast gene YCR098C): 1.4
The level of expressed mRNA in the presence of chemical substance/The level of expressed mRNA in the absence of chemical substance (yeast gene YDL124W): 3.3
The level of expressed mRNA in the presence of chemical substance/The level of expressed mRNA in the absence of chemical substance (yeast gene YDR009W): 1.3
The level of expressed mRNA in the presence of chemical substance/The level of expressed mRNA in the absence of chemical substance (yeast gene YDR019C): 0.4
level of expressed mRNA in the presence/in the absence of chemical substance (yeast gene YDR050C): 0.4
level of expressed mRNA in the presence/in the absence of chemical substance (yeast gene YDR123C): 0.5
level of expressed mRNA in the presence/in the absence of chemical substance (yeast gene YDR178W): 0.9
level of expressed mRNA in the presence/in the absence of chemical substance (yeast gene YDR277C): 0.2
level of expressed mRNA in the presence/in the absence of chemical substance (yeast gene YDR284C): 0.9
level of expressed mRNA in the presence/in the absence of chemical substance (yeast gene YDR345C): 0.2
The level of expressed mRNA in the presence of chemical substance/The level of expressed mRNA in the absence of chemical substance (yeast gene YDR380W): 0.2
level of expressed mRNA in the presence/in the absence of chemical substance (yeast gene YDR400W): 1.1
level of expressed mRNA in the presence/in the absence of chemical substance (yeast gene YDR408C): 0.3
level of expressed mRNA in the presence/in the absence of chemical substance (yeast gene YDR483W): 0.4
The level of expressed mRNA in the presence of chemical substance/The level of expressed mRNA in the absence of chemical substance (yeast gene YDR487C): 2.7
The level of expressed mRNA in the presence of chemical substance/The level of expressed mRNA in the absence of chemical substance (yeast gene YDR497C): 0.4
The level of expressed mRNA in the presence of chemical substance/The level of expressed mRNA in the absence of chemical substance (yeast gene YDR502C): 1.6
The level of expressed mRNA in the presence of chemical substance/The level of expressed mRNA in the absence of chemical substance (yeast gene YDR516C): 1.8
level of expressed mRNA in the presence/in the absence of chemical substance (yeast gene YEL063C): 0.8
The level of expressed mRNA in the presence of chemical substance/The level of expressed mRNA in the absence of chemical substance (yeast gene YER026C): 0.9
The level of expressed mRNA in the presence of chemical substance/The level of expressed mRNA in the absence of chemical substance (yeast gene YER053C): 1.3
The level of expressed mRNA in the presence of chemical substance/The level of expressed mRNA in the absence of chemical substance (yeast gene YER069W): 0.8
level of expressed mRNA in the presence/in the absence of chemical substance (yeast gene YER081W): 1.8
The level of expressed mRNA in the presence of chemical substance/The level of expressed mRNA in the absence of chemical substance (yeast gene YER096W): 7.5
level of expressed mRNA in the presence/in the absence of chemical substance (yeast gene YER120W): 0.8
The level of expressed mRNA in the presence of chemical substance/The level of expressed mRNA in the absence of chemical substance (yeast gene YER178W): 1.7
level of expressed mRNA in the presence/in the absence of chemical substance (yeast gene YFL011W): 0.3
The level of expressed mRNA in the presence of chemical substance/The level of expressed mRNA in the absence of chemical substance (yeast gene YFL014W): 13.1
The level of expressed mRNA in the presence of chemical substance/The level of expressed mRNA in the absence of chemical substance (yeast gene YFL030W): 24.5
The level of expressed mRNA in the presence of chemical substance/The level of expressed mRNA in the absence of chemical substance (yeast gene YFL031W): 1.0
The level of expressed mRNA in the presence of chemical substance/The level of expressed mRNA in the absence of chemical substance (yeast gene YFL056C): 162.3
The level of expressed mRNA in the presence of chemical substance/The level of expressed mRNA in the absence of chemical substance (yeast gene YFL057C): 51.8
The level of expressed mRNA in the presence of chemical substance/The level of expressed mRNA in the absence of chemical substance (yeast gene YFR047C): 3.0
level of expressed mRNA in the presence/in the absence of chemical substance (yeast gene YGL012W): 0.3
The level of expressed mRNA in the presence of chemical substance/The level of expressed mRNA in the absence of chemical substance (yeast gene YGL022W): 0.9
The level of expressed mRNA in the presence of chemical substance/The level of expressed mRNA in the absence of chemical substance (yeast gene YGL026C): 3.7
level of expressed mRNA in the presence/in the absence of chemical substance (yeast gene YGL115W): 1.2
The level of expressed mRNA in the presence of chemical substance/The level of expressed mRNA in the absence of chemical substance (yeast gene YGL126W): 1.6
The level of expressed mRNA in the presence of chemical substance/The level of expressed mRNA in the absence of chemical substance (yeast gene YGL202W): 1.3
The level of expressed mRNA in the presence of chemical substance/The level of expressed mRNA in the absence of chemical substance (yeast gene YGL209W): 0.6
The level of expressed mRNA in the presence of chemical substance/The level of expressed mRNA in the absence of chemical substance (yeast gene YGL248W): 0.2
The level of expressed mRNA in the presence of chemical substance/The level of expressed mRNA in the absence of chemical substance (yeast gene YGL252C): 2.7
The level of expressed mRNA in the presence of chemical substance/The level of expressed mRNA in the absence of chemical substance (yeast gene YGL254W): 3.1
The level of expressed mRNA in the presence of chemical substance/The level of expressed mRNA in the absence of chemical substance (yeast gene YGR037C): 1.7
The level of expressed mRNA in the presence of chemical substance/The level of expressed mRNA in the absence of chemical substance (yeast gene YGR055W): 5.0
level of expressed mRNA in the presence/in the absence of chemical substance (yeast gene YGR096W): 0.8
level of expressed mRNA in the presence/in the absence of chemical substance (yeast gene YGR191W): 0.1
The level of expressed mRNA in the presence of chemical substance/The level of expressed mRNA in the absence of chemical substance (yeast gene YGR194C): 2.4
level of expressed mRNA in the presence/in the absence of chemical substance (yeast gene YGR204W): 0.9
The level of expressed mRNA in the presence of chemical substance/The level of expressed mRNA in the absence of chemical substance (yeast gene YGR256W): 3.4
The level of expressed mRNA in the presence of chemical substance/The level of expressed mRNA in the absence of chemical substance (yeast gene YGR282C): 0.8
level of expressed mRNA in the presence/in the absence of chemical substance (yeast gene YGR288W): 1.6
level of expressed mRNA in the presence/in the absence of chemical substance (yeast gene YHR025W): 0.2
The level of expressed mRNA in the presence of chemical substance/The level of expressed mRNA in the absence of chemical substance (yeast gene YHR111W): 4.5
level of expressed mRNA in the presence/in the absence of chemical substance (yeast gene YHR123W): 0.8
The level of expressed mRNA in the presence of chemical substance/The level of expressed mRNA in the absence of chemical substance (yeast gene YHR137W): 0.2
The level of expressed mRNA in the presence of chemical substance/The level of expressed mRNA in the absence of chemical substance (yeast gene YHR174W): 1.0
The level of expressed mRNA in the presence of chemical substance/The level of expressed mRNA in the absence of chemical substance (yeast gene YHR176W): 6.3
level of expressed mRNA in the presence/in the absence of chemical substance (yeast gene YIL006W): 0.9
The level of expressed mRNA in the presence of chemical substance/The level of expressed mRNA in the absence of chemical substance (yeast gene YIL045W): 2.1
The level of expressed mRNA in the presence of chemical substance/The level of expressed mRNA in the absence of chemical substance (yeast gene YIL107C): 3.5
The level of expressed mRNA in the presence of chemical substance/The level of expressed mRNA in the absence of chemical substance (yeast gene YIL154C): 2.4
The level of expressed mRNA in the presence of chemical substance/The level of expressed mRNA in the absence of chemical substance (yeast gene YIL155C): 2.5
The level of expressed mRNA in the presence of chemical substance/The level of expressed mRNA in the absence of chemical substance (yeast gene YIL167W): 6.9
The level of expressed mRNA in the presence of chemical substance/The level of expressed mRNA in the absence of chemical substance (yeast gene YIL168W): 7.8
The level of expressed mRNA in the presence of chemical substance/The level of expressed mRNA in the absence of chemical substance (yeast gene YIR031C): 2.6
The level of expressed mRNA in the presence of chemical substance/The level of expressed mRNA in the absence of chemical substance (yeast gene YIR032C): 2.6
The level of expressed mRNA in the presence of chemical substance/The level of expressed mRNA in the absence of chemical substance (yeast gene YIR034C): 3.2
The level of expressed mRNA in the presence of chemical substance/The level of expressed mRNA in the absence of chemical substance (yeast gene YIR036C): 3.3
The level of expressed mRNA in the presence of chemical substance/The level of expressed mRNA in the absence of chemical substance (yeast gene YJL031C): 4.7
The level of expressed mRNA in the presence of chemical substance/The level of expressed mRNA in the absence of chemical substance (yeast gene YJL045W): 9.7
The level of expressed mRNA in the presence of chemical substance/The level of expressed mRNA in the absence of chemical substance (yeast gene YJL060W): 5.3
The level of expressed mRNA in the presence of chemical substance/The level of expressed mRNA in the absence of chemical substance (yeast gene YJL068C): 6.5
The level of expressed mRNA in the presence of chemical substance/The level of expressed mRNA in the absence of chemical substance (yeast gene YJL088W): 3.2
The level of expressed mRNA in the presence of chemical substance/The level of expressed mRNA in the absence of chemical substance (yeast gene YJL099W): 3.1
